The text below walks through data of a melting point compilation (Tetko et al.).

The structures appear in SMILES notation.

Take `COC(=O)CCC(C)C1CCC2C3C=CC4CCCCC4(C)C3CCC12C` (stereo not given): the melting point amounted to 60 °C.

Turning to `Cn1c2ccccc2c(=O)c2ccccc21`, the melting point is 204 to 207 °C.

In the case of `O=Cc1cccc(Oc2ccccn2)c1`, the melting point lay in the range of 115 to 116 °C.

With `NC(=O)c1ccccc1OCC(=O)O`, the melting point was found to be 221 °C.

In turn, `CCOC(=O)CCc1ccc(O)cc1` displayed a melting point of 40 to 42 °C.

`COCc1nnc(S)s1` returned a melting point of 77 to 79 °C.

`COc1cc([N+](=O)[O-])ccc1C` came in with a melting point of 69 to 74 °C.

`CCCCCCCCCCCCOCCOCCOCCOCCOCCOCCO`: the melting point was determined as 27 °C.

Molecule `FC(F)(F)Sc1ccc(CBr)cc1` registered a melting point of 55 °C.

Consider `Cc1nc(-c2ccc(Cl)cc2)sc1C(=O)CBr`, for which the melting point fell in the range of 120 to 121 °C.

For `CC(C)CNC(=O)C(C(F)(F)F)C(F)(F)F`, the melting point came out at 111 °C.

Consider `COC(=O)c1cc(Cl)cc(Cl)c1`, for which the melting point was determined as 59 °C.

For the molecule `CCC(C)(Br)CBr` (stereo not given), the melting point was -70 °C.

`O=c1c(=O)c2cc(Cl)c(Cl)cc12` displayed a melting point of 183 °C.

Regarding `CC(=O)OCC1C(=O)C2(C)CCC1C2(C)C` (stereo not given), the melting point was 148 °C.

Molecule `O=C(CCl)NCO` displayed a melting point of 100 °C.

Molecule `O=Cc1ccccc1N1CCN(c2ccc(C(F)(F)F)cn2)CC1` yielded a melting point of 106 to 107 °C.

`Cc1cc(Cl)ccc1Cl`: the melting point worked out at 5 °C.

On to `CC(C)(C)OC(=O)N[C@]1(C(=O)O)C[C@@H]1c1ccccc1`, for which the melting point was in the range of 180 to 182 °C.

Molecule `Brc1ccc(Sc2ccc(Br)cc2)cc1` displayed a melting point of 115 °C.

`CCOC(=O)c1c(-c2ccc(OC)cc2)csc1N` showed a melting point of 75 °C.

As for `CC1(C)OC2COC3(CO)OC(C)(C)OC3C2O1` (stereo not given), the melting point lay within 95.5 to 97.5 °C.

In the case of `CCOC(CNC1=CC(=O)C=CC1=O)OCC`, the melting point was found to be 70 °C.

As for `COc1ccc(S(N)(=O)=O)cc1F`, the melting point is 126 °C.

In turn, `CC(C(=O)O)C1CCC2C3CCC4CC(=O)CCC4(C)C3CCC12C` (stereo not given) returned a melting point of 253 °C.

As for `CS(=O)(=O)n1ccnc1`, the melting point is 86 to 88 °C.

Molecule `COc1ccc(OC)c2c(=O)c(=O)c12` came in with a melting point of 191 °C.

Molecule `NNC(=O)CSc1ccnc2cc(Cl)ccc12` gave a melting point of 213 to 216 °C.

The molecule `N=C(N)NC(N)=O` showed a melting point of 105 °C.

For `c1cc2c3c(cccc3c1)-c1nccnc1-2`, the melting point is 146 °C.

`Clc1c(Cl)c(Cl)c2c(oc3ccccc32)c1Cl` registered a melting point of 169 °C.

Turning to `COc1ccc(CC(=O)O)cc1OCc1ccccc1`, the melting point was found to be 126 °C.

The molecule `O=C(c1c(F)c(F)c(F)c(F)c1F)c1c(F)c(F)c(F)c(F)c1F` gave a melting point of 93 °C.

Consider `Cc1nc(/C(C#N)=C\c2ccccc2Cl)sc1/N=N/c1ccc(Cl)cc1`, for which the melting point was in the range of 198 to 200 °C.

On to `CC(C=CC1=C(C)CCCC1(C)C)=CC=CC(C)=CC(=O)O`, for which the melting point was determined as 185 °C.

`CCOC(=O)CNC(c1ccccc1)(c1ccccc1)c1ccccc1` came in with a melting point of 114 °C.

With `c1ccc(-c2ccccc2P(C2CCCCC2)C2CCCCC2)cc1`, the melting point fell in the range of 102 to 106 °C.

Molecule `CC(C)(C)N=O` registered a melting point of 81 to 83 °C.

Consider `CC(C)(C)NC(=O)c1ccccc1`, for which the melting point came out at 134 °C.

`CN(C)C1C(=O)C(=C(N)O)C(=O)C2(O)C(=O)C3=C(O)c4c(O)ccc(Cl)c4C(O)C3CC12` (stereo not given) displayed a melting point of 222 °C.

Molecule `O=Nc1ccc(O)c(N=O)c1O` had a melting point of 168 °C.

Molecule `Oc1cc(O)cc(Cl)c1` displayed a melting point of 118 °C.

As for `C#CC1(O)CCC2(C)C(CCC3C2CCC2(C)C3CCC23OCCO3)C1` (stereo not given), the melting point is 203 to 209 °C.

On to `CCC(=O)c1ccc(C(F)(F)F)cc1`, for which the melting point is 36 to 37 °C.

With `CC(=O)NC1=NC(=O)C(=Cc2coc3ccc(Cl)cc3c2=O)N1C`, the melting point was 276 °C.

Molecule `NNC(=O)c1csc(-c2cccc(Cl)c2Cl)n1` showed a melting point of 230 to 233 °C.

In the case of `O=C1C=C(c2ccccc2)CC1`, the melting point was -23 °C.

In turn, `O=C(Cl)c1csc(-c2cccc(Cl)c2Cl)n1` returned a melting point of 108 to 111 °C.

On to `c1ccc2c(c1)OCCOCCOCCOCCOCCO2`, for which the melting point lay in the range of 40 to 45 °C.

The molecule `COc1ccc(C(=O)N=C=S)cc1` came in with a melting point of 23 to 25 °C.

Regarding `O=C(Nc1ccccc1)OC1C=CC=CCC1OC(=O)Nc1ccccc1` (stereo not given), the melting point fell in the range of 179 to 180 °C.

`c1ccc(-c2ccc(N=C(CNc3ccc(-c4ccccc4)cc3)Nc3ccc(-c4ccccc4)cc3)cc2)cc1`: the melting point turned out to be 190 °C.

The molecule `CN(C)c1ccc(CCC2CCc3ccccc3N2C(=O)c2ccccc2)cc1` (stereo not given) came in with a melting point of 121 °C.

In turn, `OCC1OC(OCC2OC(O)(CO)C(O)C2O)C(O)C(O)C1O` (stereo not given) registered a melting point of 125 to 128 °C.

For the molecule `CCOC(=O)C(N)=S`, the melting point is 63 °C.

Turning to `O=c1n(CCCN2CCN(c3cccc(Cl)c3)CC2)nc2ccccn12`, the melting point was 87 °C.

Consider `CC(O)C1CC1` (stereo not given), for which the melting point was -32.1 °C.

In turn, `CSc1c(C#N)c(N)nc2c(/N=N/c3ccc(F)cc3)c(N)nn12` displayed a melting point of 228 °C.

`CC(=O)OC1(C(C)=O)CCC2C3CC(C)C4=CC(=O)C=CC4(C)C3(F)C(O)CC21C` (stereo not given) displayed a melting point of 298 °C.

Consider `COC(=O)CCc1ccc(OC)c(O)c1`, for which the melting point worked out at 78 °C.

Regarding `O=C(O)CCCCCCCc1ccccc1`, the melting point turned out to be 28 °C.

Molecule `O=C1Cc2cccc(Cl)c21` showed a melting point of 71 °C.

For the molecule `Cc1ccc(F)c(C#N)c1Cl`, the melting point amounted to 59 °C.

The molecule `CCOC(=O)c1nn(-c2ccc(C)cc2)c(C)c1C(=O)c1noc(-c2ccc(Cl)cc2)c1S(=O)(=O)c1ccccc1` had a melting point of 230 °C.

In turn, `O=C1c2cc3ccccc3cc2-c2ccc3ccccc3c21` came in with a melting point of 214 °C.

Regarding `O=C(Cl)c1ccc(Oc2ccccc2)cc1`, the melting point lay within 22 to 23 °C.

The molecule `CC1(C)SC2C(NC(=O)C(N)c3ccccc3)C(=O)N2C1C(=O)O` (stereo not given) had a melting point of 208 °C.

For `CCOc1ccc(Cl)cc1`, the melting point was 21 °C.

In turn, `O=C(O)C(F)(F)C(F)(F)C(F)(F)C(F)(F)C(F)(F)C(F)(F)C(F)(F)C(F)(F)C(F)(F)C(F)(F)C(F)(F)F` yielded a melting point of 112 to 114 °C.

In the case of `C=COC=C`, the melting point is -101 °C.

On to `Cc1cccc2c1CCCC2`, for which the melting point was -23 °C.

In turn, `O=C1C(c2ccc(C3=[N+]([O-])c4cc([N+](=O)[O-])ccc4C3=O)cc2)=[N+]([O-])c2cc([N+](=O)[O-])ccc21` came in with a melting point of 294 °C.

Take `CCCCCCCCCCCCCCCC(=O)OCC(COP(=O)([O-])OCC[N+](C)(C)C)OC(=O)CCCCCCCCCCCCCCC` (stereo not given): the melting point was 229 to 230 °C.

`C/C=C/C(=O)N1C(=O)OC[C@@H]1Cc1ccccc1` yielded a melting point of 84 to 85 °C.

Molecule `O=[N+]([O-])c1ccccc1C=NO` had a melting point of 100 °C.

On to `CCC(C(=O)O)c1ccc(N2Cc3ccccc3C2=O)cc1` (stereo not given), for which the melting point is 183 °C.

Molecule `Cc1cc(C)c(N)c(C(=O)O)c1` returned a melting point of 192 °C.

Consider `c1ccc2c(c1)OCCOCCOCCOc1ccccc1OCCOCCOCCO2`, for which the melting point is 102 to 106 °C.

Molecule `CCOC(=O)/C=C/[C@@H]1[C@@H](c2ccccc2)N1C(=O)c1ccccc1` yielded a melting point of 118 °C.

Molecule `Cc1cccc(C)c1NC(=O)c1ccc[nH]c1=O` gave a melting point of 266 °C.

In the case of `CC(C)(C)OC(=O)N[C@@H](Cc1c[nH]cn1)C(=O)O`, the melting point is 196 to 199 °C.

In turn, `Oc1cccc(I)c1` showed a melting point of 118 °C.

Consider `C/C=C/C1Nn2c(nnc2-c2ccc(OC)cc2)S1` (stereo not given), for which the melting point lay within 80 to 82 °C.

The molecule `CC(=O)Nc1c(C(=O)Cc2c(C)cc(C)cc2C)oc2ccccc12` showed a melting point of 161 to 162 °C.

Regarding `CC1=C(C)C(=O)c2ccccc2C1=O`, the melting point stood at 127 °C.

`O=C(C(=O)c1cccc2ccccc12)c1ccccc1` came in with a melting point of 102 °C.

In the case of `CCn1c2ccccc2c2cc(N)ccc21`, the melting point was 99 °C.

For the molecule `COc1ccc(C(=O)C=Cc2ccccc2)c(O)c1`, the melting point is 106 to 108 °C.

As for `CCOC1OC2C(CO)OC(n3cnc4c(N)ncnc43)C2O1` (stereo not given), the melting point was in the range of 228 to 231 °C.

As to `Cc1ccc(S(=O)(=O)NC(Cc2ccccc2)C(=O)CCl)cc1` (stereo not given), the melting point was 105 to 109 °C.

Molecule `CSc1sc(C(=O)O)c(-c2cccc(C(F)(F)F)c2)c1C#N` showed a melting point of 232 to 234 °C.

Molecule `CCOCCN(Cc1ccc(CN(CCOCC)C(=O)C(Cl)Cl)cc1)C(=O)C(Cl)Cl` registered a melting point of 140 °C.

`O=C(O)[C@H]1NCC[C@@H]1c1ccccc1` registered a melting point of 234 to 236 °C.

`O=C1c2ccccc2C(=O)C1c1ccc2ccccc2n1` returned a melting point of 241 °C.

The molecule `N#Cc1ccc(C(Cl)=Cc2ccc(C=C(Cl)c3ccc(C#N)cc3[N+](=O)[O-])cc2)c([N+](=O)[O-])c1` showed a melting point of 296 °C.

On to `O=C(O)C[C@H](NC(=O)OCC1c2ccccc2-c2ccccc21)c1cccc([N+](=O)[O-])c1`, for which the melting point was determined as 140 °C.

Consider `N#Cc1c(Cl)c(Cl)nc(Cl)c1Cl`, for which the melting point fell in the range of 139 to 142 °C.

In turn, `CCCCCSc1nnc[nH]1` gave a melting point of 47 to 48 °C.

In the case of `OCc1cc2c(cc1Cl)OCO2`, the melting point worked out at 70 °C.

As for `c1ccc(-c2c[nH]cn2)cc1`, the melting point was 144 °C.

Turning to `CCCCCCC1CCCCC1`, the melting point was -43 °C.

In turn, `CCOC(=O)c1cc2c(s1)Sc1[nH]c(C(=O)OCC)c(N)c1C2c1ccccc1` (stereo not given) came in with a melting point of 133 °C.

Regarding `O=C(O)c1ccc(NC(=O)C(Cc2ccc(O)cc2)NC(=O)c2ccccc2)cc1` (stereo not given), the melting point is 241 °C.

`NNc1ncc(C(F)(F)F)cc1Cl` returned a melting point of 90 to 92 °C.

For `Cc1nc(/C(C#N)=N/Nc2ccccc2Cl)sc1/N=N/c1ccc(Br)cc1`, the melting point came to 241 °C.
